This is an account of results in US20230053342A1, “IMIDAZOLIDINONE COMPOUND, PREPARATION METHOD THEREFOR AND USE THEREOF” (BETTA PHARMACEUTICALS CO., LTD, priority 2019, published 2023).

One data set has as its target PI3Kα (Homo sapiens, UniProt P42336). Put plainly: Kinase experiment (ADP-Glo, luminescence), PI3Kα. Type of data set: biochemical. The conditions noted are these: final concentration of ATP 10 μM; read-out: IC50 of compound to PI3K (nM) α. The protocol: (§1) PI3Kα, PI3Kβ, PI3Kγ kinases undergo enzymatic reactions with their substrates ATP and PIP2:3PS, the amount of the product detected by ADP-Glo agent and luminescence method were used to reflect the enzymatic activities of PI3Kα, PI3Kβ, PI3Kγ (the final concentration of ATP is 10 μM). The above methods were used to test the inhibitory activity of certain compound of the present invention on PI3Kα, PI3Kβ and PI3Kγ kinase.
(§2) Agent: Basic kinase buffer (pH 7.5); PI3Kα, PI3Kβ, PI3Kγ kinase solutions; PIP2:3PS and ATP solutions; ADP-Glo kit (containing 10 mM MgCl2).
(§3) Wherein, the buffer composition: 50 mM Hepes (pH 7.2-7.5), 3 mM MgCl2, 1 mM EGTA, 0.03% CHAPS, 100 mM NaCl, 2 mM DTT; • Compound preparation: The tested compound was diluted to a specific concentration with 100% DMSO. • Process: 1) PI3Kα, PI3Kβ, or PI3Kγ protein solution were dispensed to a 384-well assay plate (6008280, PerkinElmer), and centrifuged at 1000 rpm for 1 minute. • 2) Tested compound, negative control DMSO or positive control BYL719 was dispensed to the above-mentioned 384-well assay plate with the kinase, centrifuged at 1000 rpm for 1 min, and incubated at 25° C. for 15 mins. • 3) PIP2:3PS&ATP solution was added to the above-mentioned 384-well assay plate, centrifuged at 1000 rpm for 1 min, incubated at 25° C. for 60 mins. • 4) 5 μL of ADP-Glo agent (10 mM MgCl2 contained) was transferred to the 384-well assay plate, centrifuged at 1000 rpm for 1 min, incubated at 25° C. for 40 mins. • 5) 10 μL of Detection agent was transferred to the 384-well assay plate, centrifuged at 1000 rpm for 1 min, incubated at 25° C. for 40 mins. • 6) RLU (Relative luminescence unit) value was measured by Envision multifunctional plate reader. The RLU value was used to characterize the degree of reaction between the enzyme and the substrate, and calculate the IC50 value. • 7) Data analysis:
(§4) Compound inhibition rate(% inh)=(negative control RLU-tested compound RLU)/(negative control RLU-positive control RLU)*100%
(§5) The IC50 (half inhibitory concentration) of the compound was obtained using the following nonlinear fitting formula:
(§6) Y=minimum inhibition rate+(max inhibition rate-minimum inhibition rate)/(1+10^((Log IC50−X)*slope)); wherein, X is the log value of the concentration of the tested compound, Y is the inhibition rate of tested compound(% inh).
(In general: ADP-Glo turns the ADP formed in a reaction into a luminescent signal.)

In a further data set the target is PI3Kβ (Homo sapiens, UniProt P42338). The data set is described as follows: Kinase experiment (ADP-Glo, luminescence), PI3Kβ. It counts as biochemical. The conditions noted are these: final concentration of ATP 10 μM; read-out: IC50 of compound to PI3K (nM) β. The procedure: as §1, §2, §3, §4, §5, §6
The next data set addresses PI3Kγ (Homo sapiens, UniProt P48736). The data set is described as follows: Kinase experiment (ADP-Glo, luminescence), PI3Kγ. The conditions noted are these: final concentration of ATP 10 μM; read-out: IC50 of compound to PI3K (nM) γ. Type of data set: biochemical. The protocol:
as §1, §2, §3, §4, §5, §6

The next data set relates to human tumor cells MCF-7. The data set is described as follows: Cell proliferation assay (CellTiter Glo), MCF-7. Type of data set: cell-based. The settings on record: MCF7, MCF-7 cells incubated for 120 h, read-out: IC50(μM) of compound on MCF cell. The procedure:
(§7) Method: The anti-proliferative effects on human tumor cells MCF-7 and HGC27 of certain compounds of the present invention were evaluated by CellTiter Glo assay.
(§8) Detection method: MCF-7 cells were suspended in DMEM culture medium, the cell concentration of which was adjusted to 25000 cells/mL; HGC27 cells were suspended in RPMI-1640 culture medium, the cell concentration of which was adjusted to 5000 cells/mL. 100 μL of cell suspension was dispensed to a 96-well assay plate and placed in a CO2 incubator overnight. The tested compounds were dissolved in DMSO, and 3-fold derail dilution was performed to obtain 10-point concentrations. the 10-point concentrations of the tested compounds or or negative control was transferred to the well containing 100 μL of culture medium respectively, incubated at 37° C., 5% CO2, the HGC27 cells were incubated for 96 h, MCF-7 cells were incubated for 120 h. Then 100 μL of CellTiter-Glo agent was added to the above-mentioned 96-well assay plate, incubated at room temperature for 10 minutes to allow stable luminescence signal. VICTOR™ X5 instrument was used to record RLU (relative luminescence unit), and then calculate the IC50 values were calculated.
(§9) Compound inhibition rate(% inh)=100% −(tested compound RLU-blank control RLU)/(negative control RLU-blank control RLU)*100%
(§10) Blank control: blank culture medium, with no compound or cell;
as §5
(§11) Y=minimum inhibition rate+(max inhibition rate-minimum inhibition rate)/(1+10^((Log IC50−X)*slope)); wherein, X: the log value of the concentration of the tested compound; Y: the inhibition rate of the tested compound(% inh).
(In general: In ATP-based viability assays light output follows the ATP content of the culture.)

Another data set relates to human tumor cells HGC27. The data set is described as follows: Cell proliferation assay (CellTiter Glo), HGC27. Type of data set: cell-based. The settings on record: HGC-27, HGC27 cells incubated for 96 h, read-out: IC50(μM) of ompound on HGC-27cell. The protocol: as §7, §8, §9, §10, §5, §11
The nature of data set [1]: Pharmacokinetic test in male SD rats. The conditions noted are these: rat, plasma; for clearance: intravenous injection, 2 mg/kg; for AUC / Cmax: po, gavage, 10 mg/kg. Type of data set: in vivo. The procedure:
Method: 42 male SD rats, weight: 150-300 g. Divided into 7 groups randomly, with 6 rats in each group. Among the 6 rats in each group, three of them were administrated a single intravenous injection of […] of the example compound, the other three were given intragastric administration of […] of the example compound, blood was collected from the orbital venous plexus at designated time points, plasma was separated, and stored in a −80° C. refrigerator for later use.
The protein of the resultant plasma was precipitated by acetonitrile, the supernatant was extracted, and mixed with water at the ratio of 1:1, took 10 μL of which for LC-MS/MS detection, and calculated the average was calculated.

SMILES strings stand for the structures.

Sequence of PI3Kα (P42336 whole entry): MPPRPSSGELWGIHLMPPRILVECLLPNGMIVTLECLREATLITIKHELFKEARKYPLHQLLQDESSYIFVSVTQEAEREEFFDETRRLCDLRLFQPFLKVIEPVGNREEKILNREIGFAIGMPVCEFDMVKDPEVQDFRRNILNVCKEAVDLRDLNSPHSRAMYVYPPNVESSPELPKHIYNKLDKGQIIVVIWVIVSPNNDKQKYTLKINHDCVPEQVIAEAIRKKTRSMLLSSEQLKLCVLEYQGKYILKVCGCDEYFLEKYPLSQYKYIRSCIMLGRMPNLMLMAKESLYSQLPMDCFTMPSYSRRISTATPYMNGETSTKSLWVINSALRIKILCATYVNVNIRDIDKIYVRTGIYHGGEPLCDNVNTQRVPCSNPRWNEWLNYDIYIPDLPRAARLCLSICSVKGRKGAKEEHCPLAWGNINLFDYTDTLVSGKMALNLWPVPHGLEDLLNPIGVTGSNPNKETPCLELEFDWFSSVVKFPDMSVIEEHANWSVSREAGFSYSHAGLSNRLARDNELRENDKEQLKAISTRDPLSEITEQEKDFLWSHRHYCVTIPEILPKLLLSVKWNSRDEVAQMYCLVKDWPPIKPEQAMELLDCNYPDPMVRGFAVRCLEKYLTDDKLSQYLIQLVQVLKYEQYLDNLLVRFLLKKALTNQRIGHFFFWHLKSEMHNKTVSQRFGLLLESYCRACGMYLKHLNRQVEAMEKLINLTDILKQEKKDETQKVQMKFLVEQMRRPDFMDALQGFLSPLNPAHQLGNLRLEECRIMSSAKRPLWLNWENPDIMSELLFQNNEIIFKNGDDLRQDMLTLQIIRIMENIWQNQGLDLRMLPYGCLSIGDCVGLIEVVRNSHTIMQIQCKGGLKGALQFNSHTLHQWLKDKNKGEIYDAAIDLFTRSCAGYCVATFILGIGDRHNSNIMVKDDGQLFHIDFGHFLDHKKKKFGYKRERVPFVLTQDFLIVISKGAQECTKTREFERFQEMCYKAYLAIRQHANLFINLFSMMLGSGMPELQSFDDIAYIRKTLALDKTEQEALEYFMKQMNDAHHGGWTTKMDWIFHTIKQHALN
Sequence of PI3Kα (P27986 whole entry partner): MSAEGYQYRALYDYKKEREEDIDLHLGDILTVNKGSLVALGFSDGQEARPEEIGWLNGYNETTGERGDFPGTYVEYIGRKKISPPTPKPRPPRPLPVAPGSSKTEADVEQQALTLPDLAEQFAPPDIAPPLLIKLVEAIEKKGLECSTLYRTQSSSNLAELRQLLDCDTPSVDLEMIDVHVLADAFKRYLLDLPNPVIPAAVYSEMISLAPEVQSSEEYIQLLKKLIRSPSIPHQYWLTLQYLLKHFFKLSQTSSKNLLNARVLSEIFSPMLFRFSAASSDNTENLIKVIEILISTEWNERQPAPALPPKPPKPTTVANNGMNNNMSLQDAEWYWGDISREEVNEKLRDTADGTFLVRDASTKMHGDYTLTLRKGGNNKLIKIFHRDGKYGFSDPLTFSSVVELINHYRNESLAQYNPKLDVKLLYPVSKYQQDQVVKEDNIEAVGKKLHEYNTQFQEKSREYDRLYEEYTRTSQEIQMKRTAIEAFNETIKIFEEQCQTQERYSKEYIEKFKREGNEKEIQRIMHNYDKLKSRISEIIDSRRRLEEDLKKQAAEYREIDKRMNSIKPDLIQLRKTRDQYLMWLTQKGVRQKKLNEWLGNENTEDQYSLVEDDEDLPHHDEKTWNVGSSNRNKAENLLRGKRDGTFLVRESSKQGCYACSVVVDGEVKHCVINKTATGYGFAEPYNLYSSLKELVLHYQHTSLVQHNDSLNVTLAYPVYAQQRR
Sequence of PI3Kβ (P42338 whole entry): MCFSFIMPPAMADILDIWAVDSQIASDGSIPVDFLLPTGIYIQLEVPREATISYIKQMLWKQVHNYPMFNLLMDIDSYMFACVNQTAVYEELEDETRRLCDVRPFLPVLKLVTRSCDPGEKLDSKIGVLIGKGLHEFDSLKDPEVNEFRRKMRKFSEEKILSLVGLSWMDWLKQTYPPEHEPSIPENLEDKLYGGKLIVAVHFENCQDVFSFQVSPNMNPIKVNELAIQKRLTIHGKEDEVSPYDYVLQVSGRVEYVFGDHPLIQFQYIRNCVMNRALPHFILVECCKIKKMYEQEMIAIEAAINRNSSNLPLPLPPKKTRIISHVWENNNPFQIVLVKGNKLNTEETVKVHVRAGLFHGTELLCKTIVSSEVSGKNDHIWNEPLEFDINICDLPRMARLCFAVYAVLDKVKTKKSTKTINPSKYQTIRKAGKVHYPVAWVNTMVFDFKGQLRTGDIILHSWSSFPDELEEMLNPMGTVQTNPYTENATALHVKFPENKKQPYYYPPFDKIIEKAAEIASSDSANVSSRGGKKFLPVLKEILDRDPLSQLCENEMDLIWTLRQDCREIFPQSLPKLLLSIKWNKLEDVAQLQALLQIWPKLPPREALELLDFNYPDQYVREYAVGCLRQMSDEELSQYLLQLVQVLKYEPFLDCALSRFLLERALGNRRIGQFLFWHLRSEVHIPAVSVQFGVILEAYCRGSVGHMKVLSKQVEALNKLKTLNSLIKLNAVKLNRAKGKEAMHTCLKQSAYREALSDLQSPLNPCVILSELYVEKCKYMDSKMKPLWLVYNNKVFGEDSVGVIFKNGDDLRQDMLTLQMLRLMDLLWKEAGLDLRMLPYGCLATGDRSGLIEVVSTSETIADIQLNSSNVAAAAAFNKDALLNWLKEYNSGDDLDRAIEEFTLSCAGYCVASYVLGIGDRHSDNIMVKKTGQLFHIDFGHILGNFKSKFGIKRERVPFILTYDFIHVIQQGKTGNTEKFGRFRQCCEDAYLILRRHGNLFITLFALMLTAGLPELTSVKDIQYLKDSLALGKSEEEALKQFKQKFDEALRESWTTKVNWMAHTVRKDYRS
Sequence of PI3Kβ (P27986 whole entry partner): as the sequence (P27986 whole entry partner) above
Sequence of PI3Kγ (P48736 whole entry): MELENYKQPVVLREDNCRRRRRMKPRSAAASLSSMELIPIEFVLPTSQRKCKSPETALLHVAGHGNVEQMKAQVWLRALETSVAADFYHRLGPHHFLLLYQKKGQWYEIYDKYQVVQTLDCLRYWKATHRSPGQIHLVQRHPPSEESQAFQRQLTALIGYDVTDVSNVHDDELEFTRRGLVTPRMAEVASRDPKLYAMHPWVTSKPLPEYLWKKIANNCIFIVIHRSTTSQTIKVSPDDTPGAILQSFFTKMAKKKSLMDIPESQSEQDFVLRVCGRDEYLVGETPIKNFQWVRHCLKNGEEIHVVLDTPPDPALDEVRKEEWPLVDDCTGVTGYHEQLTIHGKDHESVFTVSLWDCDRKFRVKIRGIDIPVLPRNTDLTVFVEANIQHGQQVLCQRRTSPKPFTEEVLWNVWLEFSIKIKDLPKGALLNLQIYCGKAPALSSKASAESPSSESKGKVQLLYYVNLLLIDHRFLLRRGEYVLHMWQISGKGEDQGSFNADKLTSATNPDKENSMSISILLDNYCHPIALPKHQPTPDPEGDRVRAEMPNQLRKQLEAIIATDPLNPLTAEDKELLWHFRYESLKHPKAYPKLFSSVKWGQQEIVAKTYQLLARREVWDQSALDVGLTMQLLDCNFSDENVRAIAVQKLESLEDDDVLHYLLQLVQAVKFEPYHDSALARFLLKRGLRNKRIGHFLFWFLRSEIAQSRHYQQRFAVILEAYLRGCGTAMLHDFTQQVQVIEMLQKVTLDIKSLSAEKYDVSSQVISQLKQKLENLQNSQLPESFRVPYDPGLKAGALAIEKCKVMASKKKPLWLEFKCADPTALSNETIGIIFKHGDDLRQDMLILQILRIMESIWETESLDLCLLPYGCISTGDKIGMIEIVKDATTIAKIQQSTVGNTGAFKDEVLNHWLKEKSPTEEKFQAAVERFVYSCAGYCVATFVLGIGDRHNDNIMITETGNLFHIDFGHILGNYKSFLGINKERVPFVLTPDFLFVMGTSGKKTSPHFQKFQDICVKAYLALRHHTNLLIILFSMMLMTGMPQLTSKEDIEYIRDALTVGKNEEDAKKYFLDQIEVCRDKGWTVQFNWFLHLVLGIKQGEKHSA

For the compound `CC(C)[C@@H]1C(=O)N(C2CC2)C(=O)N1c1cn2c(n1)-c1ccc(N3CCC[C@H]3C(N)=O)cc1OCC2` [Example 32, (2S)-1-(2-((5R)-3-cyclopropyl-5-isopropyl-2,4-dioxoimidazolidin-1-yl)-5,6-dihydrobenzo[f]imidazo[1,2-d] [1,4]oxazepin-9-yl)pyrrolidine-2-carboxamide], the IC50 was below 5 nM at PI3Kα; 300 to 600 nM on PI3Kβ; 300 to 600 nM at PI3Kγ; 0.107 µM with human tumor cells MCF-7; 0.415 µM in the data set on human tumor cells HGC27. In addition, the clearance in data set [1] amounted to 1.5 mL/min/kg. Further, the AUC in data set [1] is 66400 ng·h/mL. The compound also displayed a Cmax in data set [1] of 5030 ng/mL.
With `CC(C)[C@H]1C(=O)N(C2CC2)C(=O)N1c1cn2c(n1)-c1ccc(N3CCC[C@H]3C(N)=O)cc1OCC2` [Example 33, (2S)-1-(2-((5S)-3-cyclopropyl-5-isopropyl-2,4-dioxoimidazolidin-1-yl)-5,6-dihydrobenzo[f]imidazo[1,2-d] [1,4]oxazepin-9-yl)pyrrolidine-2-carboxamide], the concentration for half-maximal inhibition (IC50) is below 5 nM on PI3Kα; above 600 nM on PI3Kβ; above 600 nM at PI3Kγ; 0.047 µM in the data set with human tumor cells MCF-7; 0.267 µM in the data set on human tumor cells HGC27. The clearance in data set [1] worked out at 11.1 mL/min/kg. This compound also had an AUC in data set [1] of 19800 ng·h/mL. In addition, in data set [1], the Cmax worked out at 1600 ng/mL.

By IC50 is commonly meant the concentration that inhibits the measured activity by half. One may read the clearance as the rate of elimination divided by the concentration. A low value points to a low capacity for elimination. As a reminder, the AUC is the area under the concentration-time curve, a measure of exposure. Low values mean low exposure, high ones high exposure. In general, Cmax refers to the peak of the concentration-time curve.
